Measurements taken from patent US20240376097A1, “BCL-2 Inhibitor” (BeiGene Ltd., priority 2020, published 2024).
Where two headings read alike, the source gives them in different places.

How the values were obtained:
[1] = biological target: Recombinant human Bcl-2 protein (Homo sapiens (Human), UniProt P10415); assay: Bcl-2 TR-FRET Assay; assay type: binding
In short: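 0.05 nM recombinant Bcl-2 preincubated 0.5 h at room temperature with 10-point compound dilutions (top final 1, 0.1, 0.02 or 0.01 uM) in pH 7.5 phosphate buffer. FITC-Bak peptide (0.5 nM) and anti-6His Tb cryptate then added for 1 h. TR-FRET read; IC50 from four-parameter logistic fit.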

[2] = biological target: recombinant human Bcl-2-G101V protein (Homo sapiens (Human), UniProt P10415, G101V); assay: Bcl-2-G101V TR-FRET Assay; assay type: binding; details: Bcl-2 G101V mutant, TR-FRET; read-out: Biochemical assay (IC50, nM) Bcl-2 G101V
In short: (§1)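 Compounds were titrated at increasing concentrations against the Bcl-2-G101V–ligand interaction. TR-FRET signals were then read (ex 337 nm; em 490/520 nm). Percent inhibition was derived from the 490-to-520 nm ratio, and IC50 from a four-parameter logistic equation.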

[3] = system: recombinant human Bcl-2-G101V protein; assay: Bcl-2-G101V TR-FRET Assay; assay type: binding; details: ratio of biochemical IC50 Bcl-2 G101V / Bcl-2 WT
In short: as §1

[4] = system: RS4;11 (BCL-2 dependent acute lymphoblastic leukemia cell line); assay: RS4;11 Cell Proliferation Assay; assay type: cell-based; details: Homo sapiens, RS4-11, RS4;11 cells, read-out: Cellular proliferation assay (IC50, nM) RS4
In short: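 RS4;11 cells, 50,000 per well in RPMI-1640 with 10% FBS, treated 48 h at 37 °C with a 10-point dilution series topping at 1 μM. Viability read by CellTiter-Glo ATP luminescence; mean IC50 reported.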

[5] = system: BCL-2 G101V knock-in cell line H96 (derive from RS4;11); assay: Bcl 2-G101V Knock-In RS4;11 Cell Proliferation Assay; assay type: cell-based; details: Homo sapiens, RS4;11 Bcl-2 G101V knock-in clone H96, 48 hrs, CellTiter-GLO, read-out: Cellular proliferation assay (IC50, nM) RS4
In short: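 H96, a CRISPR-generated RS4;11 clone carrying BCL2-G101V knock-in (WES/RNA-seq validated), seeded 50,000 per well and exposed 48 h at 37 °C to 10-point dilutions topping at 1 or 10 μM. Viability by CellTiter-Glo luminescence; mean IC50.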

[6] = biological target: recombinant human Bcl-2 D103Y protein (Homo sapiens (Human), UniProt P10415, D103Y); assay: Bcl-2-D103Y Biochemical Assay (TR-FRET); assay type: binding; details: for IC50: TR-FRET, FITC labeled Bak peptide; for Ratio of Bcl-2 D103Y/Bcl-2 WT: ratio of IC50
In short: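 Recombinant human Bcl-2 D103Y binding to its ligand measured by TR-FRET (ex 337 nm, em 490/520 nm) with increasing compound concentrations. Percent inhibition from the 490/520 nm ratio; IC50 from four-parameter logistic fit.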

[7] = Bcl-2 wild type, TR-FRET, read-out: Biochemical assay (IC50, nM) Bcl-2 WT
[8] = wild type Bcl-2, unit inferred, read-out: Bcl-2 WT

| SMILES | IC50 [1, 7] | IC50 [1, 8] | IC50 [2] | Ratio of Bcl-2 G101V/WT [3] | IC50 [4] | IC50 [5] | IC50 [6] | Ratio of Bcl-2 D103Y/Bcl-2 WT [6] |
| --- | --- | --- | --- | --- | --- | --- | --- | --- |
| COc1cc(CN2CCN(C3CC4(C3)CN(c3ccc(C(=O)NS(=O)(=O)c5ccc(NC[C@H]6CC[C@](C)(O)CC6)c([N+](=O)[O-])c5)c(Oc5cnc6[nH]cc(F)c6c5)c3)C4)[C@H](c3ccccc3C(C)C)C2)cc2c1OCC2(C)C [Example 295, 2-((3-fluoro-1H-pyrrolo[2,3-b]pyridin-5-yl)oxy)-N-((4-((((1r,4r)-4-hydroxy-4-methylcyclohexyl)methyl)amino)-3-nitrophenyl)sulfonyl)-4-(6-((R)-2-(2-isopropylphenyl)-4-((7-methoxy-3,3-dimethyl-2,3-dihydrobenzofuran-5-yl)methyl)piperazin-1-yl)-2-azaspiro[3.3]heptan-2-yl)benzamide] | 0.19 nM | 0.19 nM | 0.56 nM | 3.0 | 0.29 nM | 0.49 nM | 0.25 nM | 1.3 |
| COc1cc(CN2CCN(C3CC4(C3)CN(c3ccc(C(=O)NS(=O)(=O)c5ccc(NC[C@H]6CC[C@](C)(O)CC6)c([N+](=O)[O-])c5)c(Oc5cnc6[nH]ccc6c5)c3)C4)[C@H](c3ccccc3C(C)C)C2)cc2c1OCC2(C)C [Example 296, 2-((1H-pyrrolo[2,3-b]pyridin-5-yl)oxy)-N-((4-((((1r,4r)-4-hydroxy-4-methylcyclohexyl)methyl)amino)-3-nitrophenyl)sulfonyl)-4-(6-((R)-2-(2-isopropylphenyl)-4-((7-methoxy-3,3-dimethyl-2,3-dihydrobenzofuran-5-yl)methyl)piperazin-1-yl)-2-azaspiro[3.3]heptan-2-yl)benzamide] | 0.13 nM | 0.13 nM | 0.28 nM | 2.1 | 0.24 nM | 0.55 nM | 0.14 nM | 1.1 |
| COc1cc(CN2CCN(C3CC4(CCN(c5ccc(C(=O)NS(=O)(=O)c6ccc(NC[C@H]7CC[C@](C)(O)CC7)c([N+](=O)[O-])c6)c(Oc6cnc7[nH]cc(F)c7c6)c5)CC4)C3)[C@H](c3ccccc3C(C)C)C2)cc2c1OCCC2 [Example 299, 2-((3-fluoro-1H-pyrrolo[2,3-b]pyridin-5-yl)oxy)-N-((4-((((1r,4r)-4-hydroxy-4-methylcyclohexyl)methyl)amino)-3-nitrophenyl)sulfonyl)-4-(2-((R)-2-(2-isopropylphenyl)-4-((8-methoxychroman-6-yl)methyl)piperazin-1-yl)-7-azaspiro[3.5]nonan-7-yl)benzamide] | 0.13 nM | 0.13 nM | 0.25 nM | 1.9 | 0.27 nM | 0.47 nM | 0.13 nM | 1.0 |
| COc1cc(CN2CCN(C3CC4(CCN(c5ccc(C(=O)NS(=O)(=O)c6ccc(NC[C@H]7CC[C@](C)(O)CC7)c([N+](=O)[O-])c6)c(Oc6cnc7[nH]ccc7c6)c5)CC4)C3)[C@H](c3ccccc3C(C)C)C2)cc2c1OCCC2 [Example 302, 2-((1H-pyrrolo[2,3-b]pyridin-5-yl)oxy)-N-((4-((((1r,4r)-4-hydroxy-4-methylcyclohexyl)methyl)amino)-3-nitrophenyl)sulfonyl)-4-(2-((R)-2-(2-isopropylphenyl)-4-((8-methoxychroman-6-yl)methyl)piperazin-1-yl)-7-azaspiro[3.5]nonan-7-yl)benzamide] | 0.071 nM | 0.071 nM | 0.2 nM | 2.8 | 0.31 nM | 0.79 nM | 0.069 nM | 1.0 |
| COc1cc(CN2CCN(C3CC4(CCN(c5ccc(C(=O)NS(=O)(=O)c6ccc(NC[C@H]7CC[C@](C)(O)CC7)c([N+](=O)[O-])c6)c(Oc6cnc7[nH]cc(F)c7c6)c5)CC4)C3)[C@H](c3ccccc3C(C)C)C2)cc2c1OCC2 [Example 303] | 0.11 nM | 0.11 nM | 0.26 nM | 2.3 | 0.3 nM | 0.52 nM | 0.16 nM | 1.4 |
